Experimental data from ChEMBL document CHEMBL2311320, “A-ring modification of SCH 900229 and related chromene sulfone γ-secretase inhibitors” (Bioorg Med Chem Lett, 2013).

Tests used:
Format in all cases: cell-based, Homo sapiens
Gamma-secretase [1] = test: Inhibition of gamma-secretase (unknown origin) expressed in HEK293 cells co-expressing […] mutant assessed as reduction of amyloid beta-42 production
Gamma-secretase [2] = test: Inhibition of gamma-secretase (unknown origin) expressed in HEK293 cell membrane co-expressing […] mutant assessed as reduction of amyloid beta-40 production
Gamma-secretase [3] = test: Inhibition of gamma-secretase (unknown origin) expressed in HEK293 cells co-expressing […] mutant assessed as reduction of amyloid beta-40 production

| SMILES | IC50 (Gamma-secretase [1]) | IC50 (Gamma-secretase [2]) | IC50 (Gamma-secretase [3]) |
| --- | --- | --- | --- |
| O=S(=O)(NC[C@@H]1CCC[C@@]2(S(=O)(=O)c3ccc(C(F)(F)F)cc3)c3c(F)ccc(F)c3OC[C@@H]12)C(F)(F)F | 32 nM | 54 nM | 73 nM |
| CC[C@@H]1C[C@@H]2[C@@H](CC[C@@]3(S(=O)(=O)c4ccc(C#N)cc4)C4=C(OC[C@@H]23)C(F)(F)C=CC4=O)NS1(=O)=O | 31 nM | 3.5 nM | 110 nM |
| CC[C@@H]1C[C@@H]2[C@@H](CC[C@@]3(S(=O)(=O)c4ccc(C(F)(F)F)cc4)C4=C(OC[C@@H]23)C(F)(F)C=CC4=O)NS1(=O)=O | 25 nM | 3.9 nM | 46 nM |
| O=C1C=CC(F)(F)C2=C1[C@]1(S(=O)(=O)c3ccc(C(F)(F)F)cc3)CC[C@@H](NS(=O)(=O)C3CC3)C[C@@H]1CO2 | 110 nM | 6.8 nM | 280 nM |
| O=S(=O)(NC[C@@H]1CC[C@@]2(S(=O)(=O)c3ccc(C(F)(F)F)cc3)c3c(F)ccc(F)c3OC[C@H]2C1)C1CC1 | 19 nM | 92 nM | 6.8 nM |
| O=C1C=CC(F)(F)C2=C1[C@]1(S(=O)(=O)c3ccc(C(F)(F)F)cc3)CCC[C@@H](CNS(=O)(=O)C(F)(F)F)[C@@H]1CO2 | 200 nM | 78 nM | 330 nM |
| CS(=O)(=O)CC[C@@H]1CCC[C@@]2(S(=O)(=O)c3ccc(C(F)(F)F)cc3)C3=C(OC[C@@H]12)C(F)(F)C=CC3=O | 49 nM | 1.9 nM | 130 nM |
| CS(=O)(=O)CC[C@@H]1CCC[C@@]2(S(=O)(=O)c3ccc(C(F)(F)F)cc3)c3c(F)ccc(F)c3OC[C@@H]12 | 21 nM | 43 nM | 63 nM |
| CS(=O)(=O)CC[C@@H]1OCC[C@@]2(S(=O)(=O)c3ccc(C#N)cc3)C3=C(OC[C@@H]12)C(F)(F)C=CC3=O | 410 nM | 21 nM | 1600 nM |
| CS(=O)(=O)CC[C@@H]1OCC[C@@]2(S(=O)(=O)c3ccc(C(F)(F)F)cc3)C3=C(OC[C@@H]12)C(F)(F)C=CC3=O | 27 nM | 1.8 nM | 56 nM |
| CS(=O)(=O)CC[C@@H]1OCC[C@@]2(S(=O)(=O)c3ccc(Cl)cc3)C3=C(OC[C@@H]12)C(F)(F)C=CC3=O | 11 nM | 1.2 nM | 26 nM |

The next compounds have a lower IC50 (Gamma-secretase [1]) than those just listed; values first:

| IC50 (Gamma-secretase [1]) | IC50 (Gamma-secretase [2]) | IC50 (Gamma-secretase [3]) | SMILES |
| --- | --- | --- | --- |
| 2 nM | 1.9 nM | 5 nM | CC[C@@H]1C[C@@H]2[C@@H](CC[C@@]3(S(=O)(=O)c4ccc(C(F)(F)F)cc4)c4c(F)ccc(F)c4OC[C@@H]23)NS1(=O)=O |
| 1 nM | 1.3 nM | 4 nM | CS(=O)(=O)CC[C@@H]1OCC[C@@]2(S(=O)(=O)c3ccc(Cl)cc3)c3c(F)ccc(F)c3OC[C@@H]12 |
| 9 nM | 66 nM | 25 nM | CS(=O)(=O)CC[C@@H]1OCC[C@@]2(S(=O)(=O)c3ccc(C#N)cc3)c3c(F)ccc(F)c3OC[C@@H]12 |
| 4 nM | 15 nM | 11 nM | CS(=O)(=O)CC[C@@H]1OCC[C@@]2(S(=O)(=O)c3ccc(C(F)(F)F)cc3)c3c(F)ccc(F)c3OC[C@@H]12 |
| 2 nM | 4.7 nM | 4 nM | CC[C@@H]1C[C@@H]2[C@@H](CC[C@@]3(S(=O)(=O)c4ccc(C#N)cc4)c4c(F)ccc(F)c4OC[C@@H]23)NS1(=O)=O |
